In patent US20230339878A1, “SLC26A3 INHIBITORS AND USE THEREOF” (THE REGENTS OF THE UNIVERSITY OF CALIFORNIA, priority 2018, published 2023):
Entries after “also recorded” stand apart in the source; their conditions may differ.

What was measured:
[1] = test system: loperamide-treated wild-type mice; test: Loperamide-induced constipation model in wild-type mice; format: in vivo
Protocol: Female CD1 mice (age 8-10 weeks) were administered loperamide (0.3 mg/kg, intraperitoneally, Sigma-Aldrich) to produce constipation. Compound A1 (DRAinh-A250) (5 mg/kg, in saline containing vehicle (5% DMSO and 10% Kolliphor HS 15; Sigma-Aldrich)), tenapanor (5 mg/kg, in vehicle), both compounds (5 mg/kg each, in vehicle), or vehicle alone were administered by oral gavage 1 hour before loperamide. After loperamide injection, mice were placed individually in metabolic cages with ad libitum access to food and water. Stool samples were collected for 3 h, and total stool weight and number of fecal pellets were quantified. To measure stool water content, stool samples were dried at 80° C. for 24 h and water content was calculated as [wet weight-dry weight]/wet weight. Similar studies were done in cystic fibrosis (CF) mice (ΔF508 homozygous) lacking functional CFTR.
Constipation Model in MiceDRAinh-A260 and DRAinh-A270 were tested in a loperamide-induced constipation model in mice. Female CD1 mice (age 8-10 weeks) were administered loperamide (0.3 mg/kg, intraperitoneally, in 5% ethanol in PBS, 0.1 mg/mL final concentration) to produce constipation and vehicle in control mice. DRAinh-A260 (5 mg/kg, in saline with 5% DMSO and 10% Kolliphor HS 15) or DRAinh-A270 (1, 3 or 10 mg/kg, in PBS with 5% DMSO and 20% (2- hydroxypropyl)-β-cyclodextrin) or vehicle alone were administered by oral gavage 1 hour before loperamide (FIG. 11A). After loperamide injection, mice were placed individually in metabolic cages with free access to food and water. Stool samples were collected for 3 hours, and total stool weight and number of fecal pellets were quantified. To measure stool water content, stool samples were dried at 80° C. for 24 hours and water content was calculated as [wet weight-dry weight]/wet weight.

[2] = test system: oxalate nephropathy model in mice; test: Oxalate nephropathy model induced by high oxalate diet; format: in vivo
Protocol: To induce oxalate nephropathy, mice were fed with high oxalate (0.67%) and low calcium (<0.01%) diet as described (Am J Physiol Renal Physiol 310: F785-F795, 2016). […] Mice were started high oxalate diet at Day 0 and treated with Compound A1 (5 mg/kg) or vehicle by oral gavage twice daily starting at Day 0. At Day 14, urine was collected for 24 hours in metabolic cages and centrifuged to examine urine sediment, then mice were euthanized and kidneys were used for histological analysis.
The kidneys harvested at Day 14 were examined for kidney damage using H & E staining, and for crystal deposition using polarized light microscopy.
Similar experiments in oxalate nephropathy model were performed using DRAinh-A270. For these experiments mice had 3-hour urine collections at Day 0, 7 and 14. High oxalate diet was started on Day 0 after initial urine collection and mice were given DRAinh-A270 or vehicle intraperitoneally twice daily for 14 days.

[3] = 5 mg/kg oral twice daily, Day 14

| SMILES | three-hour stool weight, number of pellets and stool water content ([1]; 5 mg/kg oral gavage 1 hour before loperamide, wild-type mice) | insoluble urine sediment [2, 3] | kidney damage, H & E staining [2, 3] | renal crystal deposition, polarized light microscopy [2, 3] | stool parameters / diarrhea in control mice ([1]; 10 mg/kg oral, mice not treated with loperamide) | stool weight, pellet number and water content, dose-dependence ([1]; 1, 3 or 10 mg/kg oral gavage 1 hour before loperamide) | development of renal failure ([2]; intraperitoneally twice daily for 14 days) | body weight change compared to Day 0 ([2]; intraperitoneally twice daily for 14 days, Day 7 and Day 14) | 3-hour urine oxalate / creatinine ratio ([2]; intraperitoneally twice daily, Day 7 vs Day 0) | serum creatinine ([2]; intraperitoneally twice daily, Day 14) |
| --- | --- | --- | --- | --- | --- | --- | --- | --- | --- | --- |
| Cc1c(CC(=O)O)c(=O)oc2c(C)c(OCc3cccc(Br)c3)ccc12 [Compound A1] | partially prevented; also recorded: comparably reduced signs of constipation; also recorded: reduces loperamide-induced constipation | greatly reduced; also recorded: greatly reduces urine sediment | prevention of kidney damage; also recorded: prevents renal damage | prevention of crystal deposition; also recorded: prevents renal crystal deposition |  |  |  |  |  |  |
| Cc1c(CC(=O)O)c(=O)oc2c(C)c(OCc3cccc(I)c3)ccc12 [DRAinh-A270] |  |  |  |  | did not affect stool parameters or cause diarrhea | dose-dependence in normalizing stool weight and pellet number, and water content; also recorded: normalizes stool water content even at low doses | prevents development of renal failure; also recorded: prevents weight loss, hyperoxaluria and renal failure | maintained their weight better; also recorded: prevents weight loss, hyperoxaluria and renal failure | largely prevented development of hyperoxaluria; also recorded: prevents weight loss, hyperoxaluria and renal failure | normal serum creatinine |
